In patent US10654838B2, “Aminopyridine compounds useful as inhibitors of protein prenylation” (INSTITUT NATIONAL DE LA SANTE ET DE LA RECHERCHE MEDICALE …, priority 2014, dated 2020):

Tests used:
[1] = test system: prelamin A; assay: Western immunoblotting of prelamin A; type: cell-based, human; details: HGPS MSCs, optimal concentration
Description: Whole-cell lysates of MSC were collected, separated by SDS-PAGE, and transferred onto PVPF membrane by liquid transfer method. Blots were blocked in 10% skim milk (Bio-Rad) in tween 0.1% tris-buffered saline (TTBS) 1× one hour at room temperature. The primary antibodies used were a mouse anti-lamins A/C 1:200 (Millipore, JOL2), a rabbit anti-prelamin A 1/100 (ANTOO45, Diatheva) and a β-actin 1/200000 (Sigma). Membranes were incubated during the night at 4° C. Antigen-antibody binding was detected using horseradish peroxidaseconjugated species-specific secondary antibodies (GE-Healthcare, Little Chalfont, UK) followed by enhanced chemiluminescence Western blotting detection reagents (Perkin-Elmer, Waltham, USA).

[2] = test system: HGPS MSCs; assay: Live cell imaging (cell density); type: cell-based, human; details: 7 days
Description: HGPS MSCs were seeded at 2500 cells per well in 96-well plates and cultivated during 7 days in presence of the drugs. Cell density was monitored using an IncuCyte ZOOM microscope (Essen Bioscience). Each value corresponds to the mean of cell densities of four pictures taken in three independent wells.

[3] = biological target: T1, FPPS (Homo sapiens, UniProt P14324); assay: Surface plasmon resonance on immobilized FPPS; type: binding
T1 sequence (P14324 1-419): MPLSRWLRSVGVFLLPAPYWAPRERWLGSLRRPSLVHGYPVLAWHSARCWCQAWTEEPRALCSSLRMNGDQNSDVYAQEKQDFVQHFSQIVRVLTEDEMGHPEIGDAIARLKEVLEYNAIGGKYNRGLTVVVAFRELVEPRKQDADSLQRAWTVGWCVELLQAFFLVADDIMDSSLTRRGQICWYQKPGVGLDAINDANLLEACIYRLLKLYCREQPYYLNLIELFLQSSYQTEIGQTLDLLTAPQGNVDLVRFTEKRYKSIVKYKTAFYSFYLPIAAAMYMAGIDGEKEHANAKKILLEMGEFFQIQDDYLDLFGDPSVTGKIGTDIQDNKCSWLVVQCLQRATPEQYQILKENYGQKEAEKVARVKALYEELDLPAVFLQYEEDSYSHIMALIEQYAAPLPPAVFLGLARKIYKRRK
Description: Surface plasmon resonance (SPR) was measured using a BIAcore 3000 instrument at 25° C. FPPS (2800 RU) was immobilized on flow cells of a CM5-chip. The running buffer was HBSEP pH 7.4 (20 mM Hepes, 150 mM NaCl, and 0.005% P20). Regeneration was performed with 10 mM glycine, pH 3.0. […] Data were evaluated using Scrubber2 (Biologic software) and BIAeval software (BIAcore).

[4] = biological target: T1, FPPS; assay: FPPS activity assay; type: biochemical; parameters: endogenous in cells; host or cells: HGPS MSCs (cell lysate); details: concentration inducing 50% of the maximum inhibiting effect of the compound
Description: (§1) Cell pellet of HGPS MSCs were resuspended in 25 mM Tris-HCl pH 7.4, 1 mM DTT, 1 mM MgCl2, 1 EDTA, 1 mM PMSF and centrifuged at 10,000×g for 10 min at 4° C. Protein content was determined using Lowry's method. Aliquots of cell lysate containing 100 μg of total proteins were incubated with tested substances at 37° C. for 30 min.
FPPS assay was carried out with some modifications of the procedure of Krisans et al. (Krisans et al., 1994, The Journal of biological chemistry VOL. 269: 14165-14169) and described by Gupta et al. (Gupta et al., 1999, Eur J Med Chem, VOL. 43: 2751-2767). Briefly, FPPS was assayed in 150 μL containing 25 mmol/L Hepes, pH=7, 2 mmol/L MgCl2, 1 mmol/L dithiothreitol, 5 mmol/L KF, 1% A noctyl-β-glucopyranoside, 3.3 μmol/L [4-14C] IPP (18 Ci/mmol), 3 μmol/L unlabeled IPP and 20 μmol/L geranyl diphosphate. Reactions were started by adding 40 μL of treated or untreated cell lysate and incubated for 45 min at 37° C. Reactions were stopped by the addition of 150 μL 2.5 mol/L HCl in 80% ethanol containing 100 μg/mL farnesol as a carrier. The samples were hydrolyzed for 30 min at 37° C. to convert the FPP to farnesol and neutralized by the addition of 150 μL of 10% NaOH. The reaction product (farnesol) was extracted into 1 mL of N-hexane and an aliquot (200 μL) of the organic phase was used for radioactivity counting. Parallel samples were assayed to evaluate the total and the nonspecific radioactivity. In all experiments, enzyme assays were carried out in triplicate.

[5] = test system: HGPS MSCs; assay: Osteogenic differentiation (alkaline phosphatase activity); type: cell-based, human; details: 7 days of osteogenic differentiation
Description: MSC were seeded at 600 cells per well in 384 well plate in MSC culture medium and treated as previously described. After 72 hours, MSC medium was replaced by STEMPRO osteogenic induction medium (Invitrogen) in presence or not of the different drugs. After 7 days of treatment, cells were fixed with ethanol 95% and stained by adding either a colorimetric substrate of the alkaline phosphatase, the 5-Bromo-4-chloro-3-indolyl phosphate/Nitro blue tetrazolium (NBT) (Sigma-Aldrich) or a chromogenic substrate of this enzyme (absorbance at 405 nm), the p-Nitrophenyl Phosphate (pNPP) (Pierce Biotechnology).

[6] = biological target: T2, FT (Homo sapiens, UniProt P49354+P49356); assay: FT activity assay (Farnesyltransferase [3H] SPA); type: biochemical; details: concentration inducing 50% of the maximum inhibiting effect of the compound
T2 construct: Reactions were started by adding 40 μL of treated or untreated cell lysate; endogenous in cells; host or cells: HGPS MSCs (cell lysate)
Description: as §1
FT activity was determined by Famesyltransferase [3H] SPA enzyme assay (Amersham Life Science, Buckinghamshire, England). Briefly, FT activity was assayed in 20 μl of assay buffer containing 50 mmol/L Hepes, 30 mmol/L MgCl2, 20 mmol/L KCl and 5 mmol/L dithiothreitol, 20 μl of [3H]-FPP (12 pmol) and 20 μl of biotin lamin B. Reactions were started by adding 40 μL of treated or untreated cell lysate and incubated for 1 hour at 37° C. Reactions were stopped by the addition of 150 μL of stop reagent containing SPA bead and counted in a scintillation counter. FT activity was expressed as pmoles of incorporated [3H]-FPP into biotin lamin-B peptide per minute per milligram of total proteins (pmol/min/mg prot). Parallel samples were assayed to evaluate the total and the nonspecific radioactivity. In all experiments enzyme assays were carried out in triplicate.

direct interaction with FPPS (SPR), in words [3]: confirmed the direct interactions
Kd ([3]; SPR, BIAcore 3000, 25° C., read-out: Kd (M), equilibrium dissociation constant): 2.4e-05 M
IC50 [4]: 1.55 µM
IC50 [6]: 3.46 µM
Structure (SMILES): N#CC(c1ccccn1)c1ccnc(N2CCN(Cc3ccccc3F)CC2)n1 (stereo not shown) [Mono-AP1, {2-[4-(2-fluoro-benzyl)-piperazin-1-yl]-pyrimidin-4-yl}-pyridin-2-yl-acetonitrile]
prelamin A level (Western blot) [1]: increased
cytostatic effect in long term live imaging cultures [2]: less cytostatic than the FTI tipifarnib
rescue of premature osteogenic differentiation (alkaline phosphatase activity) [5]: not significantly different to those observed following FTI treatment
